Results: publication PMC12570502, “Kinetic characterization of RNA synthesis catalyzed by the model hyperthermophilic archaeon Thermococcus kodakarensis RNA polymerase” (mSphere, 2025)

Biological target: T1, T. k. RNAP (Thermococcus kodakarensis RNA polymerase) (Thermococcus kodakarensis, UniProt Q5JE32+Q5JE33+Q5JE34)
T1 construct: gene rpo1N; assembled on synthetic RNA:DNA scaffold (EC+10); with DNA-directed RNA polymerase subunit Rpo3; DNA-directed RNA polymerase subunit Rpo4; DNA-directed RNA polymerase subunit Rpo5; DNA-directed RNA polymerase subunit Rpo6; DNA-directed RNA polymerase subunit Rpo7; DNA-directed RNA polymerase subunit Rpo10; DNA-directed RNA polymerase subunit Rpo11; DNA-directed RNA polymerase subunit Rpo12
Test: chemical quench-flow single-nucleotide addition, global fit (MENOTR)
Format: biochemical
Conditions: 25 °C, pH 8.39, Mg2+, heparin trap; elongation complex EC+10 on RNA:DNA scaffold; kinetic-model Kd with k1 fixed at 1 × 10^8 M^-1 s^-1; active site
Text: chemical quench-flow single-nucleotide addition, global fit (MENOTR) on T. k. RNAP (Thermococcus kodakarensis RNA polymerase)

Nc1ncnc2c1ncn2[C@@H]1O[C@H](COP(=O)(O)OP(=O)(O)OP(=O)(O)O)[C@@H](O)[C@H]1O [ATP]
Kd: 2980 nM
